Patent US20030166483A1, “Use of 3-iodine-2-propinyl-carbamates as antimicrobial active agent” (priority 2003, published 2003)

Experiments:
Format in all cases: cell-based
[1] = test system: dermatophytes, fungi producing mildew spots and material-damaging fungi; assay: Fungistatic activity, overall result; settings: by comparison with the reference preparation
Procedure: (§1) 1×1 cm prewashed and autoclaved test specimens of standard cotton cloth to DIN 53919 (WfK-Testgewebe GmbH, Adlerstr. 42, Krefeld) were placed in the test solutions for 15 minutes, removed under sterile conditions and dried for 14 h at room temperature. 0.1 ml inoculation suspensions of the test fungi mentioned above were inoculated into malt agar in a petri dish and, after the agar had solidified, 0.1 ml was spread over the agar surface with a spatula.
(§2) The test specimens impregnated with the test solutions were then placed on the agar surface under sterile conditions and the dishes were incubated for 7 days at 25° C. The inhibiting effect was then evaluated to the following scheme: […]

[2] = test system: Trichophyton mentagrophytes, ATCC 9533; assay: Fungistatic activity by the inhibition test; settings: 7 days at 25° C.; for inhibiting effect evaluation: impregnated cotton specimens
Procedure: (§3) Candida albicans, ATCC 10231 (precultured on CaSo agar, 4 d/25° C.), Aspergillus niger, ATCC 6275 (precultured on malt agar, 8d/25° C.), Trichophyton mentagrophytes, ATCC 9533 (precultured on malt agar, 8d/25° C.), Cladosporium cladosporioides, DSM 62121 (precultured on malt agar, 8d/25° C.), Epicoccum nigrum, self-isolate (precultured on malt agar, 8d/25°).
(§4) The inocula were obtained by floating off the preculture plates with 0.05% Tween®80 and had the following germ contents:
as §1, §2

[3] = test system: Epicoccum nigrum, self-isolate; assay: Fungistatic activity by the inhibition test; settings: 7 days at 25° C.; for inhibiting effect evaluation: impregnated cotton specimens
Procedure: as §3, §4, §1, §2

[4] = test system: Aspergillus niger, ATCC 6275; assay: Fungistatic activity by the inhibition test; settings: 7 days at 25° C.; for inhibiting effect evaluation: impregnated cotton specimens
Procedure: as §3, §4, §1, §2

[5] = test system: Candida albicans, ATCC 10231; assay: Fungistatic activity by the inhibition test; settings: 7 days at 25° C.; for inhibiting effect evaluation: impregnated cotton specimens
Procedure: as §3, §4, §1, §2

[6] = test system: Cladosporium cladosporioides, DSM 62121; assay: Fungistatic activity by the inhibition test; settings: 7 days at 25° C.; for inhibiting effect evaluation: impregnated cotton specimens
Procedure: as §3, §4, §1, §2

[7] = test system: Trichophyton mentagrophytes, ATCC 9533; assay: Fungicidal activity by the DGHM germ carrier test; design: key: +: living culture; −: dead culture
Procedure: as §3, §4
(§5) The test was carried out under the Richtlinien für die Prüfung und Bewertung chemischer Desinfektionsverfahren (Guidelines for the Testing and Evaluation of Chemical Disinfection Processes) of the Deutsche Gesellschaft für Hygiene und Mikrobiologie (DGHM), Gustav Fischer Verlag, 1981:
(§6) 16 prewashed and autoclaved test specimens were placed in the above-mentioned inoculation suspensions of the test fungi and left therein for 15 minutes during which they were turned over several times. The test specimens thus contaminated were then transferred to empty Petri dishes where 10 ml of the test solutions were poured over them. After contact times of 60 and 120 minutes at 20° C., two of the test specimens were removed, briefly transferred to 10 ml of DGHM inactivator solution and then inoculated onto CaSo plates (Candida) or malt agar plates (other test fungi). Incubation lasted 7 days at 25° C. and was followed by qualitative evaluation, i.e. growth yes (+) or no (−).

[8] = test system: Epicoccum nigrum, self-isolate; assay: Fungicidal activity by the DGHM germ carrier test; design: key: +: living culture; −: dead culture
Procedure: as §3, §4, §5, §6

[9] = test system: Aspergillus niger, ATCC 6275; assay: Fungicidal activity by the DGHM germ carrier test; design: key: +: living culture; −: dead culture
Procedure: as §3, §4, §5, §6

[10] = test system: Candida albicans, ATCC 10231; assay: Fungicidal activity by the DGHM germ carrier test; design: key: +: living culture; −: dead culture
Procedure: as §3, §4, §5, §6

[11] = test system: Cladosporium cladosporioides, DSM 62121; assay: Fungicidal activity by the DGHM germ carrier test; design: key: +: living culture; −: dead culture
Procedure: as §3, §4, §5, §6

[12] = 100 ppm, contact time 60 mins. at 20° C.
[13] = 100 ppm, contact time 120 mins. at 20° C.
[14] = 500 ppm, contact time 60 mins. at 20° C.
[15] = 500 ppm, contact time 120 mins. at 20° C.
[16] = 750 ppm, contact time 60 mins. at 20° C.
[17] = 750 ppm, contact time 120 mins. at 20° C.

CCCCNC(=O)OCC#CI [IPBC, 3-Iodo-2-propinyl butyl carbamate]
fungistatic activity (overall) [1]: very good fungistatic activity | inhibition zone ([2]; 100 ppm test solution): 3-6 mm | inhibiting effect evaluation ([2]; 100 ppm test solution): 0/0 | inhibition zone ([2]; 500 ppm test solution): 12-15 mm | inhibiting effect evaluation ([2]; 500 ppm test solution): 0/0 | inhibition zone ([2]; 750 ppm test solution): 15-18 mm | inhibiting effect evaluation ([2]; 750 ppm test solution): 0/0 | inhibition zone ([3]; 100 ppm test solution): 5-9 mm | inhibiting effect evaluation ([3]; 100 ppm test solution): 0/0 | inhibition zone ([3]; 500 ppm test solution): 11-14 mm | inhibiting effect evaluation ([3]; 500 ppm test solution): 0/0 | inhibition zone ([3]; 750 ppm test solution): 12-15 mm | inhibiting effect evaluation ([3]; 750 ppm test solution): 0/0 | inhibition zone ([4]; 100 ppm test solution): 3-5 mm | inhibiting effect evaluation ([4]; 100 ppm test solution): 0/0 | inhibition zone ([4]; 500 ppm test solution): 9-11 mm | inhibiting effect evaluation ([4]; 500 ppm test solution): 0/0 | inhibition zone ([4]; 750 ppm test solution): 10-12 mm | inhibiting effect evaluation ([4]; 750 ppm test solution): 0/0 | inhibiting effect evaluation ([5]; 100 ppm test solution): 1/1 | inhibition zone ([5]; 500 ppm test solution): 3-5 mm | inhibiting effect evaluation ([5]; 500 ppm test solution): 0/0 | inhibition zone ([5]; 750 ppm test solution): 3-5 mm | inhibiting effect evaluation ([5]; 750 ppm test solution): 0/0 | inhibition zone ([6]; 100 ppm test solution): 1 mm | inhibiting effect evaluation ([6]; 100 ppm test solution): 0/0 | inhibition zone ([6]; 500 ppm test solution): 5-7 mm | inhibiting effect evaluation ([6]; 500 ppm test solution): 0/0 | inhibition zone ([6]; 750 ppm test solution): 5-7 mm | inhibiting effect evaluation ([6]; 750 ppm test solution): 0/0 | growth after contact (fungicidal activity) [7, 12]: 60 mins. + | growth after contact (fungicidal activity) [7, 13]: 120 mins. + | growth after contact (fungicidal activity) [7, 14]: 60 mins. − | growth after contact (fungicidal activity) [7, 15]: 120 mins. − | growth after contact (fungicidal activity) [7, 16]: 60 mins. − | growth after contact (fungicidal activity) [7, 17]: 120 mins. − | growth after contact (fungicidal activity) [8, 12]: 60 mins. + | growth after contact (fungicidal activity) [8, 13]: 120 mins. + | growth after contact (fungicidal activity) [8, 14]: 60 mins. − | growth after contact (fungicidal activity) [8, 15]: 120 mins. − | growth after contact (fungicidal activity) [8, 16]: 60 mins. − | growth after contact (fungicidal activity) [8, 17]: 120 mins. − | growth after contact (fungicidal activity) [9, 12]: 60 mins. + | growth after contact (fungicidal activity) [9, 13]: 120 mins. + | growth after contact (fungicidal activity) [9, 14]: 60 mins. + | growth after contact (fungicidal activity) [9, 15]: 120 mins. + | growth after contact (fungicidal activity) [9, 16]: 60 mins. + | growth after contact (fungicidal activity) [9, 17]: 120 mins. + | growth after contact (fungicidal activity) [10, 12]: 60 mins. + | growth after contact (fungicidal activity) [10, 13]: 120 mins. + | growth after contact (fungicidal activity) [10, 14]: 60 mins. + | growth after contact (fungicidal activity) [10, 15]: 120 mins. + | growth after contact (fungicidal activity) [10, 16]: 60 mins. + | growth after contact (fungicidal activity) [10, 17]: 120 mins. + | growth after contact (fungicidal activity) [11, 12]: 60 mins. + | growth after contact (fungicidal activity) [11, 13]: 120 mins. + | growth after contact (fungicidal activity) [11, 14]: 60 mins. − | growth after contact (fungicidal activity) [11, 15]: 120 mins. − | growth after contact (fungicidal activity) [11, 16]: 60 mins. − | growth after contact (fungicidal activity) [11, 17]: 120 mins. −
